Laboratory results taken from patent publication US7262151B2, “Methods and compositions for production of lipo-chito oligosaccharides by rhizobacteria” (McGill University, priority 2001, dated 2007).
Where two headings read alike, the source gives them in different places.

What was measured:
Format in all cases: cell-based
[1] = system: nod genes in Bradyrhizobium japonicum strain USDA31; experiment: nod gene induction, β-galactosidase assay, strain USDA31 (GG1)
Protocol: (§1) Bacteria were grown in yeast extract mannitol (YEM) medium (mannitol 10.0 g, K2HPO4 0.5 g, MgSO4.7H2O 0.2 g, NaCl 0.1 g, and yeast extract 0.4 g dissolved in 1000 mL of dd H2O). In order to ensure the maintenance of the strains, tetracycline was added to the bacterial cultures at a concentration of 20 mg 1^−1. One hundred mL cultures of each strain, in 250 mL flasks, were shaken at 150 rev min^−1 at 30° C. for 3-5 days and then subcultured into 400 mL of fresh medium in 1000 mL flasks. The cultures were incubated until the OD620 reached 0.2-0.3. The cultures were then divided into 5 mL tubes (sterilized).
(§2) Stock solutions of various inducers: genistein, salicylic acid and acetylsalicylic acid made in methanol and linolenic, linoleic, and jasmonic acid and methyl jasmonate were made in ethanol, and an appropriate amount of these inducers was added into the tubes before addition of bacterial culture. In the tubes, the final concentration of all the inducers was maintained as 5, 10, 25, 50 and 100 μM. Tubes were collected after 18 h of incubation and stored at −20° C. until the β-galactosidase activity was measured. Genistein (4′,5,7, trihydroxyisoflavone, purity 98%,), linolenic acid (9,12,15-Octadecatrienoic acid, purity 99%), linoleic acid (cis-9, cis-12-Octadecadienoic acid, purity 99%), jasmonic acid (±Jasmonic acid, C12H18O3) and salicylic acid (2-hydroxybenzoic acid, purity 99.0%) were obtained from Sigma, while acetylsalicylic acid (C9H8O4, 99% purity) was obtained from Acros and methyl jasmonate (95% purity) was obtained from Aldrich Chemical Company, Inc.
(§3) β-galactosidase is an enzyme which hydrolyzes β-D-galactosides. The activity of this enzyme can easily be measured with colorless substrates, which upon hydrolysis produce colored products. O-nitrophenyl-β-galactoside (ONPG) is a colorless compound and is converted to galactose and O-nitrophenol in the presence of β-galactosidase. The O-nitrophenol is yellow and can be measured by its absorption at 420 nm. In the present study, nod gene expression was indirectly measured by β-galactosidase activity following the method of Miller (1972) as modified by Stachel et al, (1985). Briefly, 0.5 mL culture was mixed with 2×Z buffer (Na2HPO4.7H2O, 16.1 g, NaH2PO4.H2O, 5.5 g, KCl 0.75 g, MgSO4.7H2O 0.246 g, β-mercaptoethanol 2.7 g, pH 7.0 dissolved in 500 mL water) and 40 μL toluene and vortexed for 10 seconds. The culture was then incubated in a water bath at 37° C. for 30 minutes and then 0.2 mL of O-nitrophenyl β-D-galactopyranoside (ONPG) was added at a concentration of 4 mg mL^−1. The cultures were incubated again in the water bath until the color of the culture changed. The reaction time was recorded and the reaction was stopped with 1M Na2CO3. After centrifugation at 10,000 rpm for 4 minutes, spectrophotometric reading at OD420 and OD600 were taken and the β-galactosidase activity was measured (β-galactosidase activity=OD420*1000/OD600*T*V, where T is the reaction time and V is the volume of the bacterial culture used for enzyme assay).
(§4) The effect of 0-100 μM concentrations of each of acetylsalicylic acid, salicylic acid, jasmonic acid, methyl jasmonate, and genistein, on induction of nod gene expression in Bradyrhizobium japonicum strains USDA31, USDA76, USDA121, and USDA3, was evaluated in accordance with the β-galactosidase assay of Experiment 1 in Example 1 above.

[2] = system: nod genes in Bradyrhizobium japonicum strain USDA76; experiment: nod gene induction, β-galactosidase assay, strain USDA 76 (GG2); conditions: control 411.8 ± 26.8
Protocol: as §1, §2, §3, §4

[3] = system: nod genes in Bradyrhizobium japonicum strain USDA121; experiment: nod gene induction, β-galactosidase assay, strain USDA121 (GG3); conditions: control 476.8 ± 86.6
Protocol: as §1, §2, §3, §4

[4] = system: nod genes in Bradyrhizobium japonicum strain USDA3; conditions: for inhibitory or inducing activity in combinations (β-galactosidase assay): 25 and 50 μM with JA, MeJA and genistein (5 μM), FIGS. 3, 4, and 5; for nod gene induction (β-galactosidase activity): USDA3 (GG4), control 362 ± 25; for induction of nod genes (β-galactosidase activity vs control without inducer), in words: all concentrations, FIG. 1; for expression of nod genes (β-galactosidase assay), in words: 5-100 μM tested, FIG. 6; for nod gene induction at optimum concentration compared with optimum JA and MeJA concentrations / optimum concentration for nod gene induction: USDA3, β-galactosidase assay
Protocol: Bradyrhizobium japonicum strain USDA3, harboring plasmid GG4, was used in the experiment. Plasmid GG4 contains a translational fusion between B. japonicum nod Y open-reading frame and lac Z of Escherichia coli.
as §1, §2, §3
The experiment was designed in a randomized complete block design (RCBD) with three replicates. […] Data are shown from the second experiment. Statistical analysis of the data was done with analysis of variance using the Statistical Analysis System computer package (SAS Institute, 1988). Comparisons among treatment means were made with an ANOVA protected LSD at the 0.05 level of statistical significance.

[5] = 5 μM, control without inducer 522.6 ± 15.9

Structure (SMILES)	nod gene induction (β-galactosidase activity) [1, 5]	nod gene induction (β-galactosidase activity) ([1]; 10 μM, control 522.6 ± 15.9)	nod gene induction (β-galactosidase activity) ([1]; 25 μM, control 522.6 ± 15.9)	nod gene induction (β-galactosidase activity) ([1]; 50 μM, control 522.6 ± 15.9)	nod gene induction (β-galactosidase activity) ([1]; 100 μM, control 522.6 ± 15.9)	nod gene induction (β-galactosidase activity) ([2]; 5 μM)	nod gene induction (β-galactosidase activity) ([2]; 10 μM)	nod gene induction (β-galactosidase activity) ([2]; 25 μM)	nod gene induction (β-galactosidase activity) ([2]; 50 μM)	nod gene induction (β-galactosidase activity) ([2]; 100 μM)	nod gene induction (β-galactosidase activity) ([3]; 5 μM)	nod gene induction (β-galactosidase activity) ([3]; 10 μM)	nod gene induction (β-galactosidase activity) ([3]; 25 μM)	nod gene induction (β-galactosidase activity) ([3]; 50 μM)	nod gene induction (β-galactosidase activity) ([3]; 100 μM)	inhibitory or inducing activity in combinations (β-galactosidase assay) [4]	nod gene induction (β-galactosidase activity) ([4]; 5 μM)	nod gene induction (β-galactosidase activity) ([4]; 10 μM)	nod gene induction (β-galactosidase activity) ([4]; 25 μM)	nod gene induction (β-galactosidase activity) ([4]; 50 μM)	other results
CC(=O)Oc1ccccc1C(=O)O [ASA, acetylsalicylic acid]	636.5 ± 66.9	563.3 ± 37.9	719.5 ± 75.2	676.6 ± 85.8	384.8 ± 34.4	363.2 ± 34.1	341 ± 21.1	418.8 ± 59.5	376.2 ± 37.2	413.1 ± 85.5	422.6 ± 64.9	425 ± 39.4	479.9 ± 88.6	445.4 ± 99	325.6 ± 58.8	did not show inhibitory or inducing activity	396 ± 14.7	372 ± 16	382 ± 16	464 ± 7	nod gene induction (β-galactosidase activity) ([4]; 100 μM): 527 ± 36; induction of nod genes (β-galactosidase activity vs control without inducer), in words [4]: did not show any activity
O=C(O)c1ccccc1O [SA, 2-hydroxybenzoic acid]	587 ± 66.6	536.4 ± 40.1	522.4 ± 65.3	476.1 ± 28.4	519.3 ± 43.5	562.2 ± 26.6	411.8 ± 75.3	473 ± 58.3	464.6 ± 36.2	430.7 ± 55.3	404.1 ± 62.5	472.7 ± 54.3	435.8 ± 69.2	434.2 ± 26.3	369.8 ± 114.9	did not show inhibitory or inducing activity	398 ± 13	402 ± 33	414 ± 17	435 ± 26	nod gene induction (β-galactosidase activity) ([4]; 100 μM): 515 ± 583; induction of nod genes (β-galactosidase activity vs control without inducer), in words [4]: did not show any activity
CCCCC/C=C\C/C=C\CCCCCCCC(=O)O [linoleic acid, (Z,Z)-9,12-Octadecadienoic acid]																					expression of nod genes (β-galactosidase assay), in words [4]: induced the expression of nod genes; nod gene induction at optimum concentration compared with optimum JA and MeJA concentrations [4]: lower; optimum concentration for nod gene induction [4]: 50 µM
CC/C=C\C/C=C\C/C=C\CCCCCCCC(=O)O [linolenic acid, (Z,Z,Z)-9,12,15-Octadecatrienoic acid]																					expression of nod genes (β-galactosidase assay), in words [4]: induced the expression of nod genes; nod gene induction at optimum concentration compared with optimum JA and MeJA concentrations [4]: lower; optimum concentration for nod gene induction [4]: 50 µM
